Laboratory results reported in article PMC3086468 (Journal of medicinal chemistry, 2011).
Read-outs that look alike come from different tables or passages of the source.

Columns and labels:
[1] = tested on: JTAg cells; assay: TCR signaling in JTAg cells, Western blot; format: cell-based, human; conditions: for TCR-induced phosphorylation of Lck at Y394: 50 μM compound, C305 stimulation 2 min, anti-pSrc(Y416) blot
[2] = tested on: primary human T cells; assay: TCR-induced phosphorylation in primary human T cells; format: cell-based; conditions: 50 μM, anti-CD3/anti-CD28 1 min
[3] = tested on: Pep; assay: Lck Y394 phosphorylation in Ptpn22+/+ and Ptpn22−/− mouse T cells; format: cell-based; conditions: 50 μM, stimulated with anti-CD3 and anti-CD4
[4] = biological target: T1, LYP (Homo sapiens, UniProt Q9Y2R2); format: biochemical
T1 sequence (Q9Y2R2 2-309): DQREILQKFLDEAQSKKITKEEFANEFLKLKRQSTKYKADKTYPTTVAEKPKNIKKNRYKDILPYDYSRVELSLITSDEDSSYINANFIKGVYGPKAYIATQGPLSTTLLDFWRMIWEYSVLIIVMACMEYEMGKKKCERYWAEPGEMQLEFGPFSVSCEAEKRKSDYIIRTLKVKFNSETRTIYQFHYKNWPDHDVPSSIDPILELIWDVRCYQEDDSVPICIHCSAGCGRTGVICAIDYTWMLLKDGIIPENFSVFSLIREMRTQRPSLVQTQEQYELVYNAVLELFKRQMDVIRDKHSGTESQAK

CCOc1ccc2nc(NC(=O)CSc3nc4sc(C)c(C)c4c(=O)[nH]3)sc2c1 [Compound 1]
TCR-induced phosphorylation of Lck at Y394 ([1]; JTAg cells): lack of activity

CCc1cccc(C)c1NC(=O)CSc1nc2c(C)ccc(C)c2cc1C#N [Compound 2]
phosphorylation of Lck at Y505 ([1]; JTAg cells treated with compound (data not shown)): unable to detect increased phosphorylation of Lck at Y505 | TCR-induced phosphorylation of Lck at Y394 ([1]; JTAg cells): lack of activity

Cc1ccc2[nH]c(=O)c(C(c3nnnn3C3CCCC3)N3CCCC4(CCCCC4)C3)cc2c1 (centres unmarked) [Compound 4]
TCR-induced phosphorylation of Lck, ZAP70 and LAT [2]: equally able to boost TCR-induced phosphorylation of Lck, ZAP70, and linker for activation of T cells (LAT) | Lck phosphorylation at Y394, wild type (Ptpn22+/+) T cells [3]: increased Lck phosphorylation at Y394 | Lck phosphorylation, Ptpn22−/− T cells [3]: no effect on phosphorylation of Lck | ERK1/2 phosphorylation ([1]; JTAg cells, 50 μM, C305 2 min): increased ERK1/2 phosphorylation | TCR-stimulated phosphorylation of ZAP70 ([1]; JTAg cells, 50 μM, C305 2 min): increased TCR-stimulated phosphorylation of ZAP70

Cc1ccc2[nH]c(=O)c(C(c3nnnn3C3CCCC3)N3CCN(C(c4ccccc4)c4ccccc4)CC3)cc2c1 (centres unmarked) [Compound 4f]
relationship between IC50 and substrate concentration [4]: independent from substrate concentration | α ([4]; pH 6): 1.93 ± 1.27

Cc1ccc2[nH]c(=O)c(C(c3nnnn3C3CCCC3)N(Cc3ccccc3)Cc3ccc(Cl)cc3)cc2c1 (centres unmarked) [Compound 4g]
dual inhibition plot vs compound 13 ([4]; 13.72 μM pY peptide, 25 nM LYP): converging lines | α ([4]; mixed model inhibition fit, pY peptide, pH 6.0, 37 °C): 2.96 ± 2.48 | relationship between IC50 and substrate concentration ([4]; pY peptide, 25 nM LYP): independent from substrate concentration

O=C(CSc1nc(C2CC2)nc2sc3c(c12)CCCC3)NCc1ccc2c(c1)OCO2 [Compound 6]
TCR-induced phosphorylation of Lck at Y394 ([1]; JTAg cells): lack of activity
